According to PubChem BioAssay (NCI):
“And” between values parts separate entries of the source, which are not always exact repeats. Identical values can stand only once.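 A five-concentration, 48-hour dose response in 96-well plates underlies each endpoint, interpolated linearly between surrounding concentrations. At the GI50, growth is halved. At the TGI there is no net growth.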

Tests used:
Assay in all cases: NCI tumour cell line growth inhibition, 48 h
NCI-H460 lung = test system: NCI-H460 lung
NCI-H522 lung = test system: NCI-H522 lung
NCI/ADR-RES ovarian = test system: NCI/ADR-RES ovarian
OVCAR-3 ovarian = test system: OVCAR-3 ovarian
OVCAR-4 ovarian = test system: OVCAR-4 ovarian
OVCAR-5 ovarian = test system: OVCAR-5 ovarian
OVCAR-8 ovarian = test system: OVCAR-8 ovarian
P388 leukemia = test system: P388 leukemia
P388/ADR leukemia = test system: P388/ADR leukemia
RPMI-8226 leukemia = test system: RPMI-8226 leukemia
RXF 393 renal = test system: RXF 393 renal
RXF-631 renal = test system: RXF-631 renal
SF-268 CNS = test system: SF-268 CNS
SF-295 CNS = test system: SF-295 CNS
SF-539 CNS = test system: SF-539 CNS
SK-MEL-2 melanoma = test system: SK-MEL-2 melanoma
SK-MEL-5 melanoma = test system: SK-MEL-5 melanoma
SK-OV-3 ovarian = test system: SK-OV-3 ovarian
SN12C renal = test system: SN12C renal
SN12K1 renal = test system: SN12K1 renal
SNB-19 CNS = test system: SNB-19 CNS
SNB-75 CNS = test system: SNB-75 CNS
SNB-78 CNS = test system: SNB-78 CNS
SW-620 colon = test system: SW-620 colon
U251 CNS = test system: U251 CNS
UACC-62 melanoma = test system: UACC-62 melanoma
UO-31 renal = test system: UO-31 renal
XF 498 CNS = test system: XF 498 CNS

## C=C1CC2CC[C@@]34C[C@@H]5O[C@@H]6C(O[C@H]7CC[C@H](CC(=O)OC8[C@@H](C)C9OC%10C[C@]%11(C[C@@H]%12O[C@@]%13(C[C@@H](C)[C@@H]%12O%11)C[C@H](C)[C@@H]%11OC%12CC(C(O)CO)OC%12C[C@@H]%11O%13)OC%10CC9O[C@H]8C[C@H]8O[C@@H](CC[C@@H]1O2)C[C@@H](C)C8=C)O[C@@H]7[C@@H]6O3)C5O4 (some centres undefined)
NCI-H460 lung
  TGI: 3.17 nM and 28 nM
NCI-H522 lung
  GI50: < 0.148 nM
  TGI: 0.594 nM and < 0.148 nM
NCI/ADR-RES ovarian
  TGI: 30.4 nM
OVCAR-3 ovarian
  GI50: < 0.148 nM
  TGI: 1.08 nM and < 0.148 nM
OVCAR-4 ovarian
  GI50: > 1480 nM
  TGI: > 1480 nM
OVCAR-5 ovarian
  GI50: > 1480 nM
  TGI: > 1480 nM
OVCAR-8 ovarian
  GI50: < 0.148 nM
  TGI: 30.5 nM
P388 leukemia
  TGI: 15.6 nM
P388/ADR leukemia
  TGI: 130 nM
RPMI-8226 leukemia
  GI50: < 0.148 nM
  TGI: > 1480 nM
RXF 393 renal
  TGI: 4.51 nM
RXF-631 renal
  TGI: 3.4 nM
SF-268 CNS
  GI50: < 0.148 nM
  TGI: > 1480 nM
SF-295 CNS
  GI50: < 0.148 nM
  TGI: 2.66 nM and 0.528 nM
SF-539 CNS
  GI50: < 0.148 nM
  TGI: 5.62 nM and 2.15 nM
SK-MEL-2 melanoma
  TGI: 7.27 nM
SK-MEL-5 melanoma
  TGI: 5.91 nM
SK-OV-3 ovarian
  GI50: < 0.148 nM
SN12C renal
  GI50: < 0.148 nM
  TGI: > 1480 nM
SN12K1 renal
  TGI: 16.2 nM
SNB-19 CNS
  GI50: < 0.148 nM
  TGI: 12.7 nM
SNB-75 CNS
  TGI: 3.67 nM
SNB-78 CNS
  GI50: < 0.148 nM
  TGI: 1320 nM
SW-620 colon
  GI50: < 0.148 nM
  TGI: > 1480 nM
U251 CNS
  GI50: < 0.148 nM
  TGI: 0.191 nM
UACC-62 melanoma
  GI50: < 0.148 nM
  TGI: > 1480 nM
UO-31 renal
  GI50: 505 nM
  TGI: > 1480 nM
XF 498 CNS
  GI50: < 0.148 nM
